Measured values taken from patent publication US12479894B2, “Pea peptide with auxiliary hypoglycemic function and preparation method thereof” (CHINA NATIONAL RESEARCH INSTITUTE OF FOOD & FERMENTATION …, priority 2019, dated 2025).

Assays:
Assay type in all cases: in vivo
Kunming mice [1] = test: Detection of fasting blood glucose level in high-fat diet / streptozotocin diabetic mice; details: FIG. 11; gavage 28 days; pea peptides 1,600 mg/kg BW, metformin 185 mg/kg BW; AUC of days 1, 7, 14, 21, 28; versus model group
Description: (§1) Hypoglycemic functions of the pea peptide samples were evaluated by using the following method.
(§2) 110 Kunming mice were weighed and randomly divided into 11 groups in total: a blank group, a model group, a positive group (metformin 185 mg/kg BW), Example 1-low dose (800 mg/kg BW), Example 1-medium dose (1600 mg/kg BW), Example 1-high dose (3,200 mg/kg BW), Example 2 (1,600 mg/kg BW), Example 3 (1,600 mg/kg BW), Comparative Example 1 (,1600 mg/kg BW), Comparative Example 2 (1,600 mg/kg BW), and Comparative Example 3 (1,600 mg/kg BW), with 10 mice for each group. No any treatment was performed on the blank group; the remaining 10 groups were fed with high-fat diet for 30 days, and then intraperitoneally injected with streptozotocin to induce diabetes, for modeling; except for the blank group and the model group, the positive group was gavaged with metformin, and the experimental group was gavaged with corresponding pea peptide, the gavage was successively performed for 28 days, and the following indicators were detected:
a. Detection of Fasting Blood Glucose Level
After modeling, blood samples were collected from tail tips of 11 groups of mice on days 1, 7, 14, 21 and 28, respectively, to determine concentration of fasting blood glucose, and an area under curve, AUC, was calculated for each group based on the average value of 10 data.

Kunming mice [2] = test: Detection of serum insulin level in high-fat diet / streptozotocin diabetic mice; details: FIG. 15, last day after 28 days gavage, pea peptides 1,600 mg/kg BW, metformin 185 mg/kg BW, versus model group
Description: as §1, §2
c. Detection of Insulin Level
On the last day of the experiment, all mice were killed, blood samples were collected and centrifuged to obtain serum, serum insulin concentrations (μg/L) were detected, and serum insulin concentration was calculated for each group based on the average value of 10 data.

Kunming mice [3] = test: Detection of glucose tolerance level (oral glucose 2 g/kg) in high-fat diet / streptozotocin diabetic mice; details: FIG. 13; last day, glucose 2 g/kg by gavage 60 min after treatment; AUC 0-120 min; pea peptides 1,600 mg/kg BW, metformin 185 mg/kg BW; versus model group
Description: as §1, §2
b. Detection of Glucose Tolerance Level […]

## CN(C)C(=N)N=C(N)N [positive group, metformin]
Kunming mice [1]
  fasting blood glucose level: significantly reduced fasting blood glucose level
Kunming mice [2]
  insulin concentration: significantly improve the insulin concentrations
Kunming mice [3]
  blood glucose concentration (glucose tolerance capability): significantly reduce the blood glucose concentration
